Experiment in all cases: combination cScore with sotorasib (Bliss gap around IC50) (%PoC); higher = stronger additive effect
The subject of one assay is NCI-H2122. The method, boiled down: (§1)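 Scores represent the average Bliss-independence gap, expected minus measured viability, in a field surrounding both monotherapy IC50s, with the top concentrations used when no IC50 was reached. Cells (NCI-H2122, NCI-H358, SW837) were seeded at 500 or 800 per well in 384-well plates, dosed in matrices at 24 h and grown for 72 h, with SW837 grown for 144 h. Viability was measured by CellTiter-Glo, normalised to vehicle wells and fitted with four-parameter curves.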

Another assay concerns SW837. Summed up: as §1
The test system of a further assay is NCI-H358. The method, boiled down: as §1

The text below walks through data of the supplement of paper PMC11424490.

The structures appear in SMILES notation.

In the case of `CS(=O)(=O)CCNCc1ccc(-c2ccc3ncnc(Nc4ccc(OCc5cccc(F)c5)c(Cl)c4)c3c2)o1` [Lapatinib] + C=CC(=O)N1CCN(c2nc(=O)n(-c3c(C)ccnc3C(C)C)c3nc(-c4c(O)cccc4F)c(F)cc23)[C@@H](C)C1 [sotorasib], the “combination cScore with sotorasib” value in the assay with NCI-H2122 is 28.9; with SW837 it was 15.4; in the assay on NCI-H358 it was 12.8.

Take `CC(C)n1nc(-c2ccc3oc(N)nc3c2)c2c(N)ncnc21` [MLN-0128] + C=CC(=O)N1CCN(c2nc(=O)n(-c3c(C)ccnc3C(C)C)c3nc(-c4c(O)cccc4F)c(F)cc23)[C@@H](C)C1 [sotorasib]: the entries for the “combination cScore with sotorasib” value with NCI-H2122, in the assay with SW837 and in the assay on NCI-H358 were 6.3, 15.9 and 10.3, respectively.

As to `COc1cc2nc(C)nc(N[C@H](C)c3cc(N)cc(C(F)(F)F)c3)c2cc1O[C@H]1CCOC1` [BI-3406 (SOSi)] + C=CC(=O)N1CCN(c2nc(=O)n(-c3c(C)ccnc3C(C)C)c3nc(-c4c(O)cccc4F)c(F)cc23)[C@@H](C)C1 [sotorasib], the “combination cScore with sotorasib” value was 28.9 in the assay on NCI-H2122, 9.14 in the assay with SW837 and 13 in the assay with NCI-H358.

Take `Oc1nc(-c2ccc(C(F)(F)F)cc2)nc2c1CSCC2` [XAV939] + C=CC(=O)N1CCN(c2nc(=O)n(-c3c(C)ccnc3C(C)C)c3nc(-c4c(O)cccc4F)c(F)cc23)[C@@H](C)C1 [sotorasib]: the “combination cScore with sotorasib” value in the assay with NCI-H2122 turned out to be 14.2; in the assay on SW837, 7.47; with NCI-H358 it was 7.36.

In the case of `CC1(N)CCN(c2cnc(-c3cccc(Cl)c3Cl)c(N)n2)CC1` [SHP099] + C=CC(=O)N1CCN(c2nc(=O)n(-c3c(C)ccnc3C(C)C)c3nc(-c4c(O)cccc4F)c(F)cc23)[C@@H](C)C1 [sotorasib], the “combination cScore with sotorasib” value in the assay on NCI-H2122 is 19.1; in the assay on SW837, 9.98; in the assay with NCI-H358, 7.84.

On to `CC[C@H](Nc1ncnc2[nH]cnc12)c1nc2cccc(F)c2c(=O)n1-c1ccccc1` [Cal-101] + C=CC(=O)N1CCN(c2nc(=O)n(-c3c(C)ccnc3C(C)C)c3nc(-c4c(O)cccc4F)c(F)cc23)[C@@H](C)C1 [sotorasib], for which the “combination cScore with sotorasib” value in the assay with NCI-H2122 came out at 29.1; in the assay on SW837 it was 7.76; in the assay on NCI-H358, 3.19.

On to `O=C(c1cc(Cc2n[nH]c(=O)c3ccccc23)ccc1F)N1CCN(C(=O)C2CC2)CC1` [Olaparib] + C=CC(=O)N1CCN(c2nc(=O)n(-c3c(C)ccnc3C(C)C)c3nc(-c4c(O)cccc4F)c(F)cc23)[C@@H](C)C1 [sotorasib], for which the figures for the “combination cScore with sotorasib” value in the assay with NCI-H2122, in the assay with SW837 and with NCI-H358 were 6.94, 8.33 and 1.2, respectively.

With `CCNC(=O)C[C@@H]1N=C(c2ccc(Cl)cc2)c2cc(OC)ccc2-n2c(C)nnc21` [iBET-762] + C=CC(=O)N1CCN(c2nc(=O)n(-c3c(C)ccnc3C(C)C)c3nc(-c4c(O)cccc4F)c(F)cc23)[C@@H](C)C1 [sotorasib], the results for the “combination cScore with sotorasib” value in the assay with NCI-H2122, with SW837 and with NCI-H358 were 22.3, 7.05 and 5.17, respectively.

For `O=C(/C=C/N1C[C@H]2C[C@@H]1CN2c1ccccn1)c1ccccc1O` [PFI-3] + C=CC(=O)N1CCN(c2nc(=O)n(-c3c(C)ccnc3C(C)C)c3nc(-c4c(O)cccc4F)c(F)cc23)[C@@H](C)C1 [sotorasib], the results for the “combination cScore with sotorasib” value with NCI-H2122, in the assay with SW837 and in the assay with NCI-H358 were 15.8, -2.6 and 0.77, respectively.

`Cc1c(N)nc([C@H](CC(N)=O)NC[C@H](N)C(N)=O)nc1C(=O)N[C@H](C(=O)N[C@H](C)[C@@H](O)[C@H](C)C(=O)N[C@H](C(=O)NCCc1nc(-c2nc(C(=O)NCCC[S+](C)C)cs2)cs1)[C@@H](C)O)[C@@H](OC1OC(CO)C(O)C(O)C1OC1OC(CO)C(O)C(OC(N)=O)C1O)c1cnc[nH]1` (some centres undefined) [Bleomycin] + C=CC(=O)N1CCN(c2nc(=O)n(-c3c(C)ccnc3C(C)C)c3nc(-c4c(O)cccc4F)c(F)cc23)[C@@H](C)C1 [sotorasib]: the entries for the “combination cScore with sotorasib” value in the assay on NCI-H2122, with SW837 and with NCI-H358 were 19.9, 11.1 and -4.36, respectively.

For `CC(C)C[C@H](NC(=O)[C@H](Cc1ccccc1)NC(=O)c1cnccn1)B(O)O` [Bortezomib] + C=CC(=O)N1CCN(c2nc(=O)n(-c3c(C)ccnc3C(C)C)c3nc(-c4c(O)cccc4F)c(F)cc23)[C@@H](C)C1 [sotorasib], the “combination cScore with sotorasib” value in the assay with NCI-H2122 is 5.05; in the assay with SW837 it was -5.84; with NCI-H358, 0.21.

As for `Cc1c(-c2c(-c3ccc(F)o3)sc3ncnc(O[C@H](Cc4ccccc4OCc4ccnn4CC(F)(F)F)C(=O)O)c23)ccc(OCCN2CCN(C)CC2)c1Cl` + C=CC(=O)N1CCN(c2nc(=O)n(-c3c(C)ccnc3C(C)C)c3nc(-c4c(O)cccc4F)c(F)cc23)[C@@H](C)C1 [sotorasib], the entries for the “combination cScore with sotorasib” value with NCI-H2122, with SW837 and in the assay on NCI-H358 were 10.4, 2.8 and 4.06, respectively.

Turning to `C[C@H](Nc1ncnc2nc[nH]c12)c1cc2cccc(Cl)c2c(=O)n1-c1ccccc1` [Duvelisib] + C=CC(=O)N1CCN(c2nc(=O)n(-c3c(C)ccnc3C(C)C)c3nc(-c4c(O)cccc4F)c(F)cc23)[C@@H](C)C1 [sotorasib], the entries for the “combination cScore with sotorasib” value in the assay with NCI-H2122, in the assay on SW837 and with NCI-H358 were 14.2, 18.6 and 4.86, respectively.

`COc1ncc(-c2ccc3nccc(-c4ccnnc4)c3c2)cc1NS(=O)(=O)c1ccc(F)cc1F` + C=CC(=O)N1CCN(c2nc(=O)n(-c3c(C)ccnc3C(C)C)c3nc(-c4c(O)cccc4F)c(F)cc23)[C@@H](C)C1 [sotorasib]: the “combination cScore with sotorasib” value in the assay with NCI-H2122 stood at 20.8; with SW837 it was 8.72; in the assay with NCI-H358 it was 5.96.

Regarding `COC(=O)[C@]12CCC(C)(C)C[C@H]1[C@H]1C(=O)C=C3[C@@]4(C)C=C(C#N)C(=O)C(C)(C)[C@@H]4CC[C@@]3(C)[C@]1(C)CC2` [Bardoxolone methyl] + C=CC(=O)N1CCN(c2nc(=O)n(-c3c(C)ccnc3C(C)C)c3nc(-c4c(O)cccc4F)c(F)cc23)[C@@H](C)C1 [sotorasib], the “combination cScore with sotorasib” value with NCI-H2122 was 13; in the assay on SW837 it was 3; in the assay on NCI-H358 it was -1.43.

`NC1(c2ccc(-c3nc4ccn5c(=O)[nH]nc5c4cc3-c3ccccc3)cc2)CCC1` [MK-2206] + C=CC(=O)N1CCN(c2nc(=O)n(-c3c(C)ccnc3C(C)C)c3nc(-c4c(O)cccc4F)c(F)cc23)[C@@H](C)C1 [sotorasib]: the “combination cScore with sotorasib” value with NCI-H2122 is 15.5; in the assay with SW837, 18; in the assay with NCI-H358, 1.28.

On to `CC(C)N(CCCNC(=O)Nc1ccc(C(C)(C)C)cc1)C[C@H]1O[C@@H](n2ccc3c(N)ncnc32)[C@H](O)[C@@H]1O` + C=CC(=O)N1CCN(c2nc(=O)n(-c3c(C)ccnc3C(C)C)c3nc(-c4c(O)cccc4F)c(F)cc23)[C@@H](C)C1 [sotorasib], for which the “combination cScore with sotorasib” value in the assay with NCI-H2122 came to 8.67; in the assay with SW837, 1.84; in the assay on NCI-H358, 2.07.

`COc1cc(Nc2ncc(F)c(Nc3ccc4c(n3)N(COP(=O)(O)O)C(=O)C(C)(C)O4)n2)cc(OC)c1OC` [Fostamatinib] + C=CC(=O)N1CCN(c2nc(=O)n(-c3c(C)ccnc3C(C)C)c3nc(-c4c(O)cccc4F)c(F)cc23)[C@@H](C)C1 [sotorasib]: the “combination cScore with sotorasib” value in the assay on NCI-H2122 is 23.3; with SW837, 23.7; in the assay with NCI-H358 it was 8.55.

Consider `CCc1c2c(nc3ccc(O)cc13)-c1cc3c(c(=O)n1C2)COC(=O)[C@]3(O)CC` [SN-38] + C=CC(=O)N1CCN(c2nc(=O)n(-c3c(C)ccnc3C(C)C)c3nc(-c4c(O)cccc4F)c(F)cc23)[C@@H](C)C1 [sotorasib], for which the “combination cScore with sotorasib” value in the assay on NCI-H2122 amounted to 11.8; in the assay on SW837, 2.7; in the assay on NCI-H358 it was 2.64.

In the case of `COc1cc2ncnc(Nc3ccc(F)c(Cl)c3)c2cc1OCCCN1CCOCC1` [Gefitinib] + C=CC(=O)N1CCN(c2nc(=O)n(-c3c(C)ccnc3C(C)C)c3nc(-c4c(O)cccc4F)c(F)cc23)[C@@H](C)C1 [sotorasib], the “combination cScore with sotorasib” value in the assay with NCI-H2122 worked out at 26.4; in the assay on SW837 it was 23.2; with NCI-H358, 8.62.

As for `O=c1cc(-c2cccc3c2Sc2ccccc2S3)oc(N2CCOCC2)c1` + C=CC(=O)N1CCN(c2nc(=O)n(-c3c(C)ccnc3C(C)C)c3nc(-c4c(O)cccc4F)c(F)cc23)[C@@H](C)C1 [sotorasib], the “combination cScore with sotorasib” value turned out to be 11.2 in the assay on NCI-H2122, 10.6 in the assay on SW837 and 12.9 with NCI-H358.

As to `O=C1c2c(O)ccc(O)c2C(=O)c2c(NCCNCCO)ccc(NCCNCCO)c21` [Mitoxantrone] + C=CC(=O)N1CCN(c2nc(=O)n(-c3c(C)ccnc3C(C)C)c3nc(-c4c(O)cccc4F)c(F)cc23)[C@@H](C)C1 [sotorasib], the “combination cScore with sotorasib” value was determined as 11.3 in the assay on NCI-H2122, 7.33 with SW837 and 1.3 in the assay with NCI-H358.

On to `CNS(=O)(=O)Nc1nccc(Cc2c(C)c3ccc(Oc4ncccn4)cc3oc2=O)c1F` + C=CC(=O)N1CCN(c2nc(=O)n(-c3c(C)ccnc3C(C)C)c3nc(-c4c(O)cccc4F)c(F)cc23)[C@@H](C)C1 [sotorasib], for which the “combination cScore with sotorasib” value in the assay on NCI-H2122 came to 8.14; in the assay with SW837 it was 5.63; with NCI-H358, 4.31.
